In ChEMBL document CHEMBL1255180, “Thieno[3,2-c]pyrazoles: a novel class of Aurora inhibitors with favorable antitumor activity” (Bioorg Med Chem, 2010):

Legend:
Assay type in all cases: ADME, organism-based
Parameters in all cases: dose 10 mg/kg, route intravenous
[1] = Cmax in CD1 mouse at 10 mg/kg, iv bid; conditions: in vivo
[2] = AUC in CD1 mouse at 10 mg/kg, iv bid; conditions: plasma
[3] = Clearance in CD1 mouse at 10 mg/kg, iv bid; conditions: in vivo
[4] = Volume of distribution in CD1 mouse at 10 mg/kg, iv bid; conditions: in vivo
[5] = Half life in CD1 mouse at 10 mg/kg, iv bid; conditions: in vivo

Cmax [1]: 9 µM | AUC [2]: 9 µM·h | clearance [3]: 3 L/h/kg | Vd [4]: 16 L/kg | half-life [5]: 7 h
SMILES: O=C(Nc1n[nH]c2cc(C(=O)N[C@H](CN3CCCC3)c3ccccc3)sc12)c1ccc(N2CCOCC2)cc1
